In patent US20240383845A1, “NAPHTHALENEDITHIOL AND DERIVATIVE THEREOF, AND PRODUCTION PROCESS AND USE FOR THE SAME” (SUGAI CHEMICAL INDUSTRY CO., LTD., priority 2021, published 2024):

Assays:
[1] = Refractive index (abbe refractometer); format: physicochemical; settings: 25° C., 589 nm, value at 100% by mass by extrapolation
Method: The refractive index of each sample was measured using an abbe refractometer (“NAR-lT” manufactured by ATAGO CO., LTD.) at a temperature of 25° C. and a wavelength of 589 nm. Depending on the species of each sample, the refractive index was measured as follows.
For the after-mentioned 16NDSH, 15NDSH, 26NDSH and 27NDSH; 15DGNDSH; 15DHENDSH; 16DMNDSH and 15DMNDSH; and 16DCNDSH and 15DCNDSH, a sample was dissolved in 1,3-dimethyl-2-imidazolidinone (DMI) to prepare multiple solutions with different concentrations, and the refractive index of each solution was measured at a temperature of 25° C. and a wavelength of 589 nm. From the results of the refractive index at each concentration, the refractive index value at 100% by mass of the concentration was determined by extrapolation.
For the after-mentioned 16NDSHMA, 15NDSHMA, 26NDSHMA and 27NDSHMA; 16NDSHA and 15NDSHA; 15DANDSH; and 15DVNDSH, polymerization may occur during the mixing, and thus a sample was dissolved in a methoquinone/DMI solution (a solution containing 4000 ppm of methoquinone relative to the mass of DMI) to prepare multiple solutions with different concentrations. The refractive index of each solution was measured at a temperature of 25° C. and a wavelength of 589 nm. From the results of the refractive index at each concentration, the refractive index value at 100% by mass of the concentration was determined by extrapolation.
For the after-mentioned 16DANDSH; 16DVNDSH; 16DGNDSH; and 16DHENDSH, a sample was liquid for a while after preparation, and thus the refractive index was measured in the state of an undiluted solution. Further, thiol-ene-based resins (thiol-ene-based resins obtained from 16NDSH or 15NDSH and divinylbenzene) were measured in the same manner. […]

[2] = Dissolubility or compatibility (maximum dissolved concentration, HPLC); format: physicochemical; settings: 25° C.; for Dissolubility, MMA: methyl methacrylate; for Dissolubility, PGMEA: propylene glycol monomethyl ether acetate; for Dissolubility, DMF: N,N-dimethylformamide; for Dissolubility, THF: tetrahydrofuran
Method: In more detail, the sample was added to a predetermined amount of a solvent or a polymerizable component until the sample was no longer dissolved, and the sample content of the liquid layer (the solvent layer) of the resulting mixture was analyzed using an HPLC (“SPD-20A” manufactured by SHIMADZU CORPORATION), and thus the concentration (the maximum dissolved concentration) of the sample in the liquid layer (the solvent layer) was determined as a solubility.

[3] = DMI solutions of different concentrations

SMILES | Refractive index ([1]; methoquinone/DMI solutions) | Dissolubility, Ethyl acetate [2] | Dissolubility, MMA [2] | Dissolubility, PGMEA [2] | Dissolubility, Styrene [2] | Dissolubility, Toluene [2] | melting point | Refractive index [1, 3] | Dissolubility, DMF [2] | Dissolubility, THF [2] | Dissolubility, Methanol [2]
C=CSc1cccc2c(SC=C)cccc12 [Example 15DVNDSH, 1,5-bis(vinylthio)naphthalene] | 1.685 | 39.0 % by mass | 43.6 % by mass | 26.3 % by mass | 45.8 % by mass | 59.6 % by mass | 50 to 52 °C |  |  |  | 
C=CC(=O)Sc1cccc2c(SC(=O)C=C)cccc12 [Example 15NDSHA, 1,5-bis(acryloylthio)naphthalene] | 1.646 | 1.57 % by mass | 1.93 % by mass | 1.50 % by mass | 4.24 % by mass | 2.61 % by mass | 156 to 158 °C |  |  |  | 
O=C(O)CSc1ccc2c(SCC(=O)O)cccc2c1 [Example 16DCNDSH, 1,6-bis(carboxymethylthio)naphthalene] |  | 0.56 % by mass | 0.14 % by mass | 0.98 % by mass |  |  | 176 to 178 °C | 1.663 | 61.0 % by mass | 30.5 % by mass | 
CSc1ccc2c(SC)cccc2c1 [Example 16DMNDSH, 1,6-bis(methylthio)naphthalene] |  | Freely blended (>90) % by mass | 62.3 % by mass | 42.3 % by mass | 68.7 % by mass | Freely blended (>90) % by mass | 52 to 53 °C | 1.690 |  |  | 
C=CC(=O)Sc1ccc2c(SC(=O)C=C)cccc2c1 [Example 16NDSHA, 1,6-bis(acryloylthio)naphthalene] | 1.667 | 56.3 % by mass | 55.7 % by mass | 44.3 % by mass | 59.4 % by mass | 58.4 % by mass | 64 to 66 °C |  |  |  | 
Sc1ccc2cc(S)ccc2c1 [Example 26NDSH, 2,6-naphthalenedithiol] |  | 0.65 % by mass |  | 0.73 % by mass |  | 0.64 % by mass | 196 to 197 °C | 1.718 | 3.54 % by mass | 4.03 % by mass | 0.11 % by mass
Sc1ccc2ccc(S)cc2c1 [Example 27NDSH, 2,7-naphthalenedithiol] |  | 0.90 % by mass |  | 1.05 % by mass |  | 0.76 % by mass | 186 to 188 °C | 1.721 | 7.75 % by mass | 5.24 % by mass | 0.16 % by mass
